Source: patent US11129845B2, “Compositions and methods for the delivery of nucleic acids” (CASE WESTERN RESERVE UNIVERSITY, priority 2014, dated 2021)

How the values were obtained:
[1] = Nanoparticle diameter and polydispersity by dynamic light scattering (Malvern Zetasizer); format: physicochemical; details: for Nanoparticle diameter as measured by dynamic light scattering: siRNA-lipid complexes
Description: (§1) The cationic lipid carriers are dissolved in ethanol at a stock concentration of 2.5 mM, while all siRNA is reconstituted in nuclease-free water at a 0.25 μg/μL (18.8 μM) concentration. Nanoparticles are formulated by mixing the carriers with siRNA for a period of 30 min in RNase-free phosphate buffer saline (PBS) at pre-specified N/P ratios (N=number of protonable amines in lipid, P=number of phosphate groups in the siRNA). In preparing the lipoplexes, proper dilutions were made such that the volume ratio of ethanol:water was kept constant at 1:20. Minimizing the amount of ethanol is important because it is effective in dissolving lipids, thus inhibiting particle formation. The diameters (as determined by dynamic light scattering) and zeta potentials of all nanoparticles were analyzed using a Malvern Zetasizer instrument at pH=7.4. siRNA encapsulation efficiency was calculated using a RiboGreen fluorescence-based assay from Invitrogen, designed specifically for detection of free RNA at […] wavelengths of 480 and 520 nm, respectively. Nanoparticles were created with all carriers in the library so that final siRNA concentrations were 1.6 μg/mL. A linear standard curve was utilized to calculate the encapsulation efficiencies from signal intensities measured by a SpectraMax microplate reader (Molecular Devices).

CHO-GFP cells = format: cell-based, Chinese hamster
Description: Cytotoxicity of the carriers was investigated using an MTT colorimetric assay measuring cellular metabolic activity (Invitrogen). The transfection procedure was identical to that presented for the reporter knockdown studies above, except for the fact that 96 well plates were utilized instead, and seeded with 10,000 cells per well. After transfection, the cells were allowed to grow for an additional 48 h. At that point, they were incubated with MTT for 4 h, followed by an additional 4 hour incubation with an SDS-HCl solution to dissolve any insoluble formazan crystals formed by the reduction of MTT by NAD(P)H-dependent enzymes in the cells. The absorbance of each sample was measured at 570 nm using a SpectraMax microplate reader. Cellular viability was calculated by averaging the signal intensities over three replicates and then normalizing the results relative to the negative control data.
The RNAi capabilities of each carrier were investigated by analyzing the silencing of a luciferase (Luc) reporter in HT29 cancer cells after anti-Luc siRNA therapy. To perform this study, we seeded HT29-Luc cells in 12 well plates at a density of 20,000 cells per well. […] Luciferase expression was determined using a Spectra Max luminometer upon the addition of a light-inducing substrate to the collected protein. […]

luciferase reporter = assay: Luciferase reporter silencing in HT29-Luc cells; format: cell-based, human; details: for Luciferase expression: 100 nM siRNA
Description: Gene silencing efficiency was investigated in the HT29-Luc cell line by analyzing the expression of a luciferase reporter after anti-Luc siRNA therapy. To perform this study, cancer cells were seeded in 12 well plates at a density of 20,000 cells per well. Transfections were conducted in fresh serum-free media with 100 nM of siRNA when the cells were 25% confluent. The cells continued to grow in normal growth media for an additional 48 and 72 h, at which point they were rinsed twice with PBS and lysed for protein collection. The lysis buffer was a component of a Promega Luciferase Assay kit designed for measuring luciferase expression in the cell lysate. Equally important, the lysis buffer was compatible with the BCA protein assay so that we were able to normalize the luciferase expression in our samples with total protein content. For this silencing study, all synthesized carriers were evaluated at N/P ratios of 8, 10, 12, 14, 16, 18, and 20 to determine the best transfection formulation. Relative luciferase expression was determined for each trial using a SpectraMax luminometer upon the addition of a light-inducing luciferin substrate to the collected protein.
The RNAi capabilities of each carrier were investigated by analyzing the silencing of a luciferase (Luc) reporter in HT29 cancer cells after anti-Luc siRNA therapy. To perform this study, we seeded HT29-Luc cells in 12 well plates at a density of 20,000 cells per well. When 25% confluency, the cells were incubated with fresh serum-free transfection media containing nanoparticles at a dose of 100 nM siRNA. After 4 hours, the media was replaced with fresh complete growth media, so that the cells could continue to grow for an additional 48-72 hours, at which point they were lysed for protein collection. The lysis buffer was compatible with the BCA protein assay so that we could normalize luciferase expression in our samples. Negative controls included cells that were treated with 1) particles encapsulating non-specific siRNA, 2) naked anti-Luc siRNA, or 3) plain serum-free media. Luciferase expression was determined using a Spectra Max luminometer upon the addition of a light-inducing substrate to the collected protein. A similar knockdown experiment was also conducted in non-cancerous CHO cells expressing a GFP reporter. Flow cytometry was utilized to assess the silencing efficiency of the ECO and ECL delivery systems in this cell line. Cytotoxicity of the carriers 48 hours post-transfection was also investigated in both cell lines using an MTT colorimetric assay. […] These RNAi silencing levels surpassed those obtained with a Lipofectamine RNAiMax commercial transfection agent.

[2] = Agarose gel retardation (siRNA loading); format: physicochemical
Description: The ability of ECO to complex and condense siRNA was assessed by gel electrophoresis. […] The gel was submerged in 0.5×Tris/Borate/EDTA (TBE) buffer and run at 100 V for 25 minutes. Free siRNA was run as the control. SiRNA bands were visualized using an AlphaImager ultraviolet imaging system (Biosciences). […] Following incubation, samples were loaded onto a 1% agarose gel containing ethidium bromide and run in the same manner as described. […] At each intermittent time point, aliquots were taken and stored at −80° C. After the final aliquot was taken at 24 hours, samples were incubated for 30 minutes with heparin at a heparin/siRNA (w/w) ratio of 5 to release the complexed siRNA cargo and each sample was loaded on the 1% agarose gel and run as described above. Free siRNA was also incubated in 50% serum for 0.5, 1, 6, or 24 hours and stored and run on the gel in a similar manner.

[3] = Zeta-potential of siRNA-lipid complexes (Malvern Zetasizer); format: physicochemical
Description: as §1

[4] = Ribogreen siRNA entrapment efficiency of ECO/siRNA nanoparticles; format: physicochemical
Excerpt: A Ribogreen assay (Molecular Probes) was used to quantify the entrapment efficiency of siRNA within the ECO/siRNA nanoparticles. […] Free siRNA following particle formation was detected using a SpectraMax microplate reader (Molecular Devices) with an excitation of 500 nm and emission of 525 nm.

Structure (SMILES): CCCCCCCC/C=C\CCCCCCCC(=O)N[C@@H](CS)C(=O)NCCNC(=O)CCN(CCN)CCC(=O)NCCNC(=O)[C@H](CS)NC(=O)CCCCCCC/C=C\CCCCCCCC [ECO, (1-aminoethyl)iminobis[N-(oleicylcysteinyl-1-amino-ethyl)propionamide]]
- Polydispersity of siRNA-lipid complexes ([1]; N/P = 2): 0.245
- Polydispersity of siRNA-lipid complexes ([1]; N/P = 5): 0.200
- Polydispersity of siRNA-lipid complexes ([1]; N/P = 8): 0.157
- Polydispersity of siRNA-lipid complexes ([1]; N/P = 10): 0.136
- Polydispersity of siRNA-lipid complexes ([1]; N/P = 15): 0.005
- Nanoparticle diameter as measured by dynamic light scattering ([1]; N/P = 2): 468 ± 43 nm
- Nanoparticle diameter as measured by dynamic light scattering ([1]; N/P = 5): 448 ± 23 nm
- Nanoparticle diameter as measured by dynamic light scattering ([1]; N/P = 8): 59 ± 11 nm
- Nanoparticle diameter as measured by dynamic light scattering ([1]; N/P = 10): 78 ± 12 nm
- Nanoparticle diameter as measured by dynamic light scattering ([1]; N/P = 15): 42 ± 9 nm
- cell viability (MTT) (CHO-GFP cells): greater than 85%
- luciferase knockdown (transfection efficiency) (luciferase reporter; HT29, N/P 18, 72 h post-transfection): 77.5±3.3%
- silencing efficiency (luciferase reporter; HT29-Luc, N/P ratio of 18, over 72 hours): 80%
- Luciferase expression (luciferase reporter; HT29-Luc, N/P=12, 72 h): 33.5±3.82%
- Luciferase expression (luciferase reporter; HT29-Luc, N/P=18 (Lipofectamine per manufacturer), 72 h): 22.7±3.31%
- N/P ratio at which complexed siRNA was completely prevented from migrating through the gel [2]: ≥ 14
- N/P ratio at which no siRNA signal was observed in the loading well [2]: ≥ 18
- Zeta-potential of siRNA-lipid complexes ([3]; pH = 7.4, N/P = 2): −32.20 ± 0.90 mV
- Zeta-potential of siRNA-lipid complexes ([3]; pH = 7.4, N/P = 5): −16.84 ± 1.58 mV
- Zeta-potential of siRNA-lipid complexes ([3]; pH = 7.4, N/P = 8): 28.82 ± 1.03 mV
- Zeta-potential of siRNA-lipid complexes ([3]; pH = 7.4, N/P = 10): 25.68 ± 2.02 mV
- Zeta-potential of siRNA-lipid complexes ([3]; pH = 7.4, N/P = 15): 25.19 ± 2.32 mV
- siRNA entrapment (RiboGreen) ([4]; N/P=6): 82.1±4.3%
- siRNA entrapment (RiboGreen) ([4]; N/P=20): 98.7±5.0%
